# According to ChEMBL document CHEMBL3044945, “Synthesis of 1,3,5-trisubstituted pyrazoline nucleus containing compounds and screening for antimicrobial activity” (2012):
# What was measured:
# Type in all cases: functional
# Aspergillus niger [1] = test: Antifungal activity against Aspergillus niger MTCC 2546 at 500 ug/ml after 48 hr by cup-plate method; settings: MTCC 2546, 48 h, read-out: DIZ
# Micrococcus luteus [2] = test: Antibacterial activity against Micrococcus luteus MTCC 1538 at 1000 ug/ml after 48 hr by cup-plate method; settings: MTCC 1538, 48 h, read-out: DIZ
# Aspergillus niger [3] = test: Antifungal activity against Aspergillus niger MTCC 2546 at 1250 ug/ml after 48 hr by cup-plate method; settings: MTCC 2546, 48 h, read-out: DIZ
# Escherichia coli [4] = test: Antibacterial activity against Escherichia coli MTCC 1573 after 24 to 48 hr by tube dilution method
# Pseudomonas fluorescens [5] = test: Antibacterial activity against Pseudomonas fluorescens MTCC 2421 at 100 ug/ml after 48 hr by cup-plate method; settings: MTCC 2421, 48 h, read-out: DIZ
# Escherichia coli [6] = test: Antibacterial activity against Escherichia coli MTCC 1573 at 1000 ug/ml after 48 hr by cup-plate method; settings: MTCC 1573, 48 h, read-out: DIZ
# Pseudomonas fluorescens [7] = test: Antibacterial activity against Pseudomonas fluorescens MTCC 2421 at 250 ug/ml after 48 hr by cup-plate method; settings: MTCC 2421, 48 h, read-out: DIZ
# Micrococcus luteus [8] = test: Antibacterial activity against Micrococcus luteus MTCC 1538 at 750 ug/ml after 48 hr by cup-plate method; settings: MTCC 1538, 48 h, read-out: DIZ
# Aspergillus niger [9] = test: Antifungal activity against Aspergillus niger MTCC 2546 at 250 ug/ml after 48 hr by cup-plate method; settings: MTCC 2546, 48 h, read-out: DIZ
# Pseudomonas fluorescens [10] = test: Antibacterial activity against Pseudomonas fluorescens MTCC 2421 at 1000 ug/ml after 48 hr by cup-plate method; settings: MTCC 2421, 48 h, read-out: DIZ
# Escherichia coli [11] = test: Antibacterial activity against Escherichia coli MTCC 1573 at 1250 ug/ml after 48 hr by cup-plate method; settings: MTCC 1573, 48 h, read-out: DIZ
# Penicillium chrysogenum [12] = test: Antifungal activity against Penicillium chrysogenum MTCC 161 at 750 ug/ml after 48 hr by cup-plate method; settings: MTCC 161, 48 h, read-out: DIZ
# Pseudomonas aeruginosa [13] = test: Antibacterial activity against Pseudomonas aeruginosa MTCC 424 at 500 ug/ml after 48 hr by cup-plate method; settings: MTCC 424, 48 h, read-out: DIZ
# Micrococcus luteus [14] = test: Antibacterial activity against Micrococcus luteus MTCC 1538 at 1250 ug/ml after 48 hr by cup-plate method; settings: MTCC 1538, 48 h, read-out: DIZ
# Aspergillus niger [15] = test: Antifungal activity against Aspergillus niger MTCC 2546 at 100 ug/ml after 48 hr by cup-plate method; settings: MTCC 2546, 48 h, read-out: DIZ
# Bacillus pumilus [16] = test: Antibacterial activity against Bacillus pumilus MTCC 1456 at 750 ug/ml after 48 hr by cup-plate method; settings: MTCC 1456, 48 h, read-out: DIZ
# Penicillium chrysogenum [17] = test: Antifungal activity against Penicillium chrysogenum MTCC 161 at 500 ug/ml after 48 hr by cup-plate method; settings: MTCC 161, 48 h, read-out: DIZ
# Pseudomonas fluorescens [18] = test: Antibacterial activity against Pseudomonas fluorescens MTCC 2421 at 750 ug/ml after 48 hr by cup-plate method; settings: MTCC 2421, 48 h, read-out: DIZ
# Staphylococcus aureus [19] = test: Antibacterial activity against Staphylococcus aureus MTCC 1430 after 24 to 48 hr by tube dilution method
# Aspergillus niger [20] = test: Antifungal activity against Aspergillus niger MTCC 2546 at 1000 ug/ml after 48 hr by cup-plate method; settings: MTCC 2546, 48 h, read-out: DIZ
# Bacillus pumilus [21] = test: Antibacterial activity against Bacillus pumilus MTCC 1456 at 1000 ug/ml after 48 hr by cup-plate method; settings: MTCC 1456, 48 h, read-out: DIZ
# Escherichia coli [22] = test: Antibacterial activity against Escherichia coli MTCC 1573 at 750 ug/ml after 48 hr by cup-plate method; settings: MTCC 1573, 48 h, read-out: DIZ
# Pseudomonas aeruginosa [23] = test: Antibacterial activity against Pseudomonas aeruginosa MTCC 424 after 24 to 48 hr by tube dilution method
# Micrococcus luteus [24] = test: Antibacterial activity against Micrococcus luteus MTCC 1538 at 500 ug/ml after 48 hr by cup-plate method; settings: MTCC 1538, 48 h, read-out: DIZ
# Bacillus pumilus [25] = test: Antibacterial activity against Bacillus pumilus MTCC 1456 after 24 to 48 hr by tube dilution method
# Bacillus subtilis [26] = test: Antibacterial activity against Bacillus subtilis MTCC 441 at 500 ug/ml after 48 hr by cup-plate method; settings: MTCC 441, 48 h, read-out: DIZ
# Penicillium chrysogenum [27] = test: Antifungal activity against Penicillium chrysogenum MTCC 161 at 100 ug/ml after 48 hr by cup-plate method; settings: MTCC 161, 48 h, read-out: DIZ
# Pseudomonas aeruginosa [28] = test: Antibacterial activity against Pseudomonas aeruginosa MTCC 424 at 750 ug/ml after 48 hr by cup-plate method; settings: MTCC 424, 48 h, read-out: DIZ
# Micrococcus luteus [29] = test: Antibacterial activity against Micrococcus luteus MTCC 1538 after 24 to 48 hr by tube dilution method
# Penicillium chrysogenum [30] = test: Antifungal activity against Penicillium chrysogenum MTCC 161 at 1250 ug/ml after 48 hr by cup-plate method; settings: MTCC 161, 48 h, read-out: DIZ
# Penicillium chrysogenum [31] = test: Antifungal activity against Penicillium chrysogenum MTCC 161 at 1000 ug/ml after 48 hr by cup-plate method; settings: MTCC 161, 48 h, read-out: DIZ
# Bacillus subtilis [32] = test: Antibacterial activity against Bacillus subtilis MTCC 441 after 24 to 48 hr by tube dilution method
# Micrococcus luteus [33] = test: Antibacterial activity against Micrococcus luteus MTCC 1538 at 250 ug/ml after 48 hr by cup-plate method; settings: MTCC 1538, 48 h, read-out: DIZ
# Pseudomonas fluorescens [34] = test: Antibacterial activity against Pseudomonas fluorescens MTCC 2421 at 1250 ug/ml after 48 hr by cup-plate method; settings: MTCC 2421, 48 h, read-out: DIZ
# Penicillium chrysogenum [35] = test: Antifungal activity against Penicillium chrysogenum MTCC 161 at 250 ug/ml after 48 hr by cup-plate method; settings: MTCC 161, 48 h, read-out: DIZ
# Penicillium chrysogenum [36] = test: Antifungal activity against Penicillium chrysogenum MTCC 161 after 24 to 48 hr by tube dilution method
# Bacillus pumilus [37] = test: Antibacterial activity against Bacillus pumilus MTCC 1456 at 500 ug/ml after 48 hr by cup-plate method; settings: MTCC 1456, 48 h, read-out: DIZ
# Escherichia coli [38] = test: Antibacterial activity against Escherichia coli MTCC 1573 at 250 ug/ml after 48 hr by cup-plate method; settings: MTCC 1573, 48 h, read-out: DIZ
# Bacillus pumilus [39] = test: Antibacterial activity against Bacillus pumilus MTCC 1456 at 250 ug/ml after 48 hr by cup-plate method; settings: MTCC 1456, 48 h, read-out: DIZ
# Bacillus pumilus [40] = test: Antibacterial activity against Bacillus pumilus MTCC 1456 at 1250 ug/ml after 48 hr by cup-plate method; settings: MTCC 1456, 48 h, read-out: DIZ
# Staphylococcus aureus [41] = test: Antibacterial activity against Staphylococcus aureus MTCC 1430 at 500 ug/ml after 48 hr by cup-plate method; settings: MTCC 1430, 48 h, read-out: DIZ
# Bacillus subtilis [42] = test: Antibacterial activity against Bacillus subtilis MTCC 441 at 1250 ug/ml after 48 hr by cup-plate method; settings: MTCC 441, 48 h, read-out: DIZ
# Staphylococcus aureus [43] = test: Antibacterial activity against Staphylococcus aureus MTCC 1430 at 750 ug/ml after 48 hr by cup-plate method; settings: MTCC 1430, 48 h, read-out: DIZ
# Aspergillus niger [44] = test: Antifungal activity against Aspergillus niger MTCC 2546 after 24 to 48 hr by tube dilution method
# Bacillus pumilus [45] = test: Antibacterial activity against Bacillus pumilus MTCC 1456 at 100 ug/ml after 48 hr by cup-plate method; settings: MTCC 1456, 48 h, read-out: DIZ
compound,measurement,setting,value
O=[N+]([O-])c1ccc(C2CC(c3cccc4ccccc34)=NN2c2ccccc2[N+](=O)[O-])cc1 (stereo not given),zone of inhibition at 500 µg/mL,Aspergillus niger [1],12 mm
same,zone of inhibition at 1000 µg/mL,Micrococcus luteus [2],15 mm
same,zone of inhibition at 1250 µg/mL,Aspergillus niger [3],25 mm
same,MIC,Escherichia coli [4],30 µg/mL
same,zone of inhibition at 100 µg/mL,Pseudomonas fluorescens [5],10 mm
same,zone of inhibition at 1000 µg/mL,Escherichia coli [6],17 mm
same,zone of inhibition at 250 µg/mL,Pseudomonas fluorescens [7],11 mm
same,zone of inhibition at 750 µg/mL,Micrococcus luteus [8],13 mm
same,zone of inhibition at 250 µg/mL,Aspergillus niger [9],11 mm
same,zone of inhibition at 1000 µg/mL,Pseudomonas fluorescens [10],21 mm
same,zone of inhibition at 1250 µg/mL,Escherichia coli [11],20 mm
same,zone of inhibition at 750 µg/mL,Penicillium chrysogenum [12],20 mm
same,zone of inhibition at 500 µg/mL,Pseudomonas aeruginosa [13],15 mm
same,zone of inhibition at 1250 µg/mL,Micrococcus luteus [14],17 mm
same,zone of inhibition at 100 µg/mL,Aspergillus niger [15],10 mm
same,zone of inhibition at 750 µg/mL,Bacillus pumilus [16],18 mm
same,zone of inhibition at 500 µg/mL,Penicillium chrysogenum [17],15 mm
same,zone of inhibition at 750 µg/mL,Pseudomonas fluorescens [18],18 mm
same,MIC,Staphylococcus aureus [19],50 µg/mL
same,zone of inhibition at 1000 µg/mL,Aspergillus niger [20],23 mm
same,zone of inhibition at 1000 µg/mL,Bacillus pumilus [21],23 mm
same,zone of inhibition at 750 µg/mL,Escherichia coli [22],13 mm
same,MIC,Pseudomonas aeruginosa [23],150 µg/mL
same,zone of inhibition at 500 µg/mL,Micrococcus luteus [24],9 mm
same,MIC,Bacillus pumilus [25],30 µg/mL
same,zone of inhibition at 500 µg/mL,Bacillus subtilis [26],14 mm
same,zone of inhibition at 100 µg/mL,Penicillium chrysogenum [27],13 mm
same,zone of inhibition at 750 µg/mL,Pseudomonas aeruginosa [28],16 mm
same,MIC,Micrococcus luteus [29],30 µg/mL
same,zone of inhibition at 1250 µg/mL,Penicillium chrysogenum [30],26 mm
same,zone of inhibition at 1000 µg/mL,Penicillium chrysogenum [31],24 mm
same,MIC,Bacillus subtilis [32],19 µg/mL
same,zone of inhibition at 250 µg/mL,Micrococcus luteus [33],8 mm
same,zone of inhibition at 1250 µg/mL,Pseudomonas fluorescens [34],24 mm
same,zone of inhibition at 250 µg/mL,Penicillium chrysogenum [35],14 mm
same,MIC,Penicillium chrysogenum [36],30 µg/mL
same,zone of inhibition at 500 µg/mL,Bacillus pumilus [37],12 mm
same,zone of inhibition at 250 µg/mL,Escherichia coli [38],10 mm
same,zone of inhibition at 250 µg/mL,Bacillus pumilus [39],11 mm
same,zone of inhibition at 1250 µg/mL,Bacillus pumilus [40],25 mm
same,zone of inhibition at 500 µg/mL,Staphylococcus aureus [41],10 mm
same,zone of inhibition at 1250 µg/mL,Bacillus subtilis [42],17 mm
same,zone of inhibition at 750 µg/mL,Staphylococcus aureus [43],12 mm
same,MIC,Aspergillus niger [44],30 µg/mL
same,zone of inhibition at 100 µg/mL,Bacillus pumilus [45],10 mm
